Test results: patent publication US10017535B2, “Amphiphilic compounds with neuroprotective properties” (USTAV ORGANICKE CHEMIE A BIOCHEMIE AV CR, v.v.i., priority 2014, dated 2018)
Where two headings read alike, the source gives them in different places.

Key:
[1] = system: laboratory mice, strain CD-1; assay: Open field test (locomotor activity, sedative effect); on Open Field Test No Evidence of Hyperlocomotion: key: −: the desired effect was not observed; −/+: the desired effect was insufficient; +: the desired effect was observed; on Sedative Effect The Rapid Onset of Sedation at a Dose of 100 mg/kg: key: −: the desired effect was not observed; −/+: the desired effect was insufficient; +: the desired effect was observed; type: in vivo; conditions: for pathway in open field: dose 10 and 100 mg/kg, vs intact mice; for locomotor activity over time: higher dose of 10 resp. 100 mg/kg; for Open Field Test No Evidence of Hyperlocomotion / Sedative Effect The Rapid Onset of Sedation at a Dose of 100 mg/kg: intraperitoneally; for Open Field Test No Evidence of Hyperlocomotion: 0.1-100 mg/kg; for hyperlocomotion in open field: lower doses (below 10 mg/kg)
Description: (§1) In the Experimental Part 1 were used adults (30-35 g) male laboratory mice, strain CD-1 from Velaz facility, Czech Republic. Mice were housed in plastic boxes with a 12-hour light cycle (lights on at 7:00 pm). Mice had free access to food and water.
Amphiphilic steroid compounds were dissolved in a solution of 3 g (2-hydroxypropyl)-β-cyclodextrin (CDX, Sigma-Aldrich) and 157 mg of citric acid ([…], Sigma-Aldrich) in 30 ml of distilled water, the pH was adjusted to 7.4 using sodium hydroxide (NaOH, Sigma-Aldrich). Thus there were prepared solutions of the four steroids for application rates of 0.1, 1, 10 and 100 mg/kg.
The efficacy of the studied compounds was compared to known NMDA antagonist is memantine (Sigma-Aldrich) at a dose of 5 mg/kg in rats, ketamine (Vétoquinol) at 10 mg/kg and dizocilpine (MK-801) (Sigma-Aldrich) at a dose of 0.3 mg/kg in mice. These three compounds were dissolved in saline (B Braun).
The substances at dose 0.1-100 mg/kg were administered before the test to mice intraperitoneally. As controls were used intact mice and mice that received CDX solution. Also, MK-801 (0.3 mg/kg) was used for comparison of effects of noncompetitive antagonist of NMDA receptors. From the experiment was evaluated overall track anywhere in the arena as an indicator of locomotor activity. In addition, it was judged a ten-minute segments track during each experiment. Based on these values, it was possible to determine the latency time of onset of action and changes in locomotor activity over time.
In this arrangement, the sedative effect of the studied compounds at the highest dose was evaluated. […] Over time was monitored locomotor activity and possible changes characterized by tremor, ataxia, restlessness, or sedation or general anesthesia (absence of response to stimuli, decreased muscle tone).

[2] = system: laboratory mice, strain CD-1; type: in vivo; conditions: intraperitoneally, 1 mg/kg; further: key: −: the desired effect was not observed; −/+: the desired effect was insufficient; +: the desired effect was observed
Description: as §1
Thus there were prepared solutions of the four steroids for application rates of 0.1, 1, 10 and 100 mg/kg.
Laboratory mouse was chosen as a model organism for this experiment. The following experiments were performed as described in Front Behay. Neurosci.
The purpose of the primary behavioral testing was quickly determined the effect of compounds on CNS dependent functions and any signs of toxicity. A simplified modification Irwin test was selected with respect to the behavioral profile of NMDA receptor antagonists. Mice were tested individually. The study drug was administered intraperitoneally (Table 3) at a dose of 1 mg/kg. The control group consisted of individuals that received the CDX solution or saline.

[3] = system: laboratory mice, strain CD-1; assay: Passive avoidance test (aversive motivated memory); type: in vivo; on Passive Avoidance Test No Memory Violation: key: −: the desired effect was not observed; −/+: the desired effect was insufficient; +: the desired effect was observed
Description: as §1
Aversive motivated memory test was evaluated on the basis of latency input into the preferred, but unpleasant sensation associated with delivery device.

[4] = system: laboratory mice, strain CD-1; assay: Forced swimming test (antidepressant effect); type: in vivo
Description: as §1
This assay was used to monitor the antidepressant effect. Animals float 6 minutes in acrylic cylinder in water at 24° C. A period of immobility is evaluated. The reduction is a manifestation of anti-depressant properties of drugs.

[5] = system: NMDA lesion of the dorsal hippocampus in rats; assay: Active allothetic place avoidance (AAPA) after bilateral excitotoxic NMDA lesion of dorsal hippocampus; type: in vivo, rat Long-Evans strain; conditions: for maximum time avoiding the sector, fourth session of AAPA / number of entries into the forbidden sector, fourth session of AAPA: 1 mg/kg after surgery, vs NMDA group
Description: In the Experimental Part 2 were used adult (3 months old, 300-400 g) male rat Long-Evans strain. The animals come from herds Institute of Physiology ASCR. The rats were housed in clear plastic boxes with the same light cycle as in mice. Animals had free access to food and water. All experiments were carried out in the light of clay. All experiments were carried out in accordance with the Law on protection of animals against cruelty.
The anesthetized rats were used in operations isoflurane (3.5%, Baxter). To recall excitotoxic lesion of the dorsal hippocampus was applied 0.05 mol·l^−1 solution of NMDA (Sigma-Aldrich) in 0.4 mol·l^−1 phosphate buffer solution prepared by mixing 356 g Na2HPO4.12H2O (Mw358.14) in 4.2 l of distilled water and a solution of 62.4 g NaHPO4. 2H2O (Mw156.01) in 0.8 l of distilled water. The pH of the resulting solution of NMDA was adjusted to 7.4 with NaOH.
In this experiment, the neuroprotective effects were evaluated for amphiphilic steroid compounds. The procedure was performed according to Neuropharmacology 61, 61-68 (2011)
The rats were randomly divided into eleven groups. The control group included operated animals, which were injected by phosphate buffer […] into the hippocampus. In the second group, the animals had NMDA lesions of the hippocampus. The animals of the third group were applied clinically used NMDA antagonist memantine at a dose of 5 mg/kg after NMDA lesion. The other groups were administered the compounds at a dose of 1 mg/kg.
The test was performed in rotating arena with prohibited sector in the form of a circular sector (60°). If the rat entered the sector, its limbs received weak electrical impulse.
Test memory and spatial cognition in rats using AAPA was evaluated over four sessions, which are in healthy rats sufficient to achieve asymptotic level (Behay. Brain. Res. 189, 139-144 (2008)). To evaluate memory and spatial cognition was used data from the fourth session, and the number of entries into the forbidden sector and the maximum avoidance sector. […] After the experiment, the localization of the lesion was histologically verified.
Data were analyzed using the non parametric test of Maim Whitney criteria using the GraphPad. The difference was considered significant for p<0.05, for a non-significant tendency then for 0.05<p<0.075.

[6] = target: T1, NR1-1a/NR2B NMDA receptor (Rattus norvegicus, UniProt P35439+Q00960); assay: Patch-clamp inhibition of glutamate-evoked currents at recombinant NMDA receptors in transfected HEK293 cells; type: cell-based; conditions: for IC50: calculated from relative steroid-induced inhibition, Hill's coefficient 1.2, read-out: IC50
T1 construct: expressed in transfected cells; host or cells: HEK293 cells (ATCC CRL1573)
Summary of the method: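 HEK293 cells co-transfected with rat NR1-1a/NR2B plus GFP were whole-cell patch-clamped 16-40 h post-transfection at −60 mV. Currents were evoked by 1 mmol·l^−1 glutamate with 10 μmol·l^−1 glycine in ECS pH 7.3, and steroid was co-applied in DMSO via fast perfusion. IC50 came from relative inhibition.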

[7] = system: NMDA receptors on hipocampal neurones; conditions: 100 μmol·l^−1 pregnanolone sulfate, responses to 100 μmol·l^−1 NMDA, n=5; cited from earlier work
[8] = target: T1, NR1-1a/NR2B NMDA receptor; conditions: 100 μmol·l^−1 pregnanolone sulfate, recombinant NR1/NR2B receptors, n=5, cited from earlier work
[9] = HEK293, read-out: Mean % change ± SD
[10] = memantine 5 mg/kg after NMDA lesion

T1 sequence (Q00960 27-1482, other chains not shown): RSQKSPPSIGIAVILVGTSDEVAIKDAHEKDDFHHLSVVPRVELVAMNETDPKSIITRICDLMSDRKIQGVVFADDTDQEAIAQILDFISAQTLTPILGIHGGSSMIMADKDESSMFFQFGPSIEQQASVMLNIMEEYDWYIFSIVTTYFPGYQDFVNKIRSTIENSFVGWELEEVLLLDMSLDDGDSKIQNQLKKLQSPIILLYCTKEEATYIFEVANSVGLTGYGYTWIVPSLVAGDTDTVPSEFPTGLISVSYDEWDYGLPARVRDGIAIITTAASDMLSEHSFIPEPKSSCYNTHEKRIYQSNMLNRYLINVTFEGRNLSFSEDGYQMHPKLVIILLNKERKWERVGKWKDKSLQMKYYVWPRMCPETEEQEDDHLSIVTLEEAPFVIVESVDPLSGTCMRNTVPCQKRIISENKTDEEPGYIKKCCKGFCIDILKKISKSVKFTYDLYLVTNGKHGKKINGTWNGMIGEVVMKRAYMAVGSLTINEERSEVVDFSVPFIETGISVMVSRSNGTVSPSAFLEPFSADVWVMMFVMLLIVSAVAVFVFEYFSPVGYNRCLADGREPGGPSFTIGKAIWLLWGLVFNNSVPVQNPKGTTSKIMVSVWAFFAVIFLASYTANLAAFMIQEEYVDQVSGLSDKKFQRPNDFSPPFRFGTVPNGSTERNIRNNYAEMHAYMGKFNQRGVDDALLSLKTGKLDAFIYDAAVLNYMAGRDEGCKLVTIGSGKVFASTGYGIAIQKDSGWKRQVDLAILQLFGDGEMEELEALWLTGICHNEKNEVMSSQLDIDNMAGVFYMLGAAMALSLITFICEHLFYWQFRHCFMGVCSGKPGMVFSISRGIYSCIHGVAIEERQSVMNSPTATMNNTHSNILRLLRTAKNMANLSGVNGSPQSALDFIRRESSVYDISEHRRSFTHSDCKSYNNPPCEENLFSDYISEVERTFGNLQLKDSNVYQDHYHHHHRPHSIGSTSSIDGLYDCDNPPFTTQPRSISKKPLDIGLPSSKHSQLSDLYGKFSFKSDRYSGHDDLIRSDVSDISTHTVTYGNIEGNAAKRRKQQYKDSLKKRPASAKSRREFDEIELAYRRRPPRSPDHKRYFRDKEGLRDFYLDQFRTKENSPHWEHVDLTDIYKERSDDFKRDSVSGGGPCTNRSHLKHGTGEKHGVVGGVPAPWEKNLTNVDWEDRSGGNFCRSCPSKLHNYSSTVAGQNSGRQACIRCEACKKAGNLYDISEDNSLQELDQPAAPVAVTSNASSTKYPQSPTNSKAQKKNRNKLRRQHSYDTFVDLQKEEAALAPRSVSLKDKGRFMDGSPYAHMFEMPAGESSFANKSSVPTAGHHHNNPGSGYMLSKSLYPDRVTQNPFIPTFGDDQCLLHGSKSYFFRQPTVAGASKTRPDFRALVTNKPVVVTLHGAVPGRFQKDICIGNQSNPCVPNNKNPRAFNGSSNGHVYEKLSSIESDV

In the case of C[C@H]1CC[C@H]2[C@@H]3CC[C@@H]4C[C@H](OC(=O)[C@@H](N)CCC(=O)O)CC[C@]4(C)[C@H]3CC[C@]12C [Compound 81, (4S)-4-Amino-5-oxo-5-(((3R,5R,8S,9S,10S,13R,14S,17S)-10,13,17-trimethylhexadecahydro-1H-cyclopenta[a]phenanthren-3-yl)oxy)pentanoic acid], the “pathway in open field” value [1] is reported as “significant reduction”, the “locomotor activity over time” value [1] is reported as “significant decrease” and the “Open Field Test No Evidence of Hyperlocomotion” value (shortened to “Open Field Test No Evidence”) [1] is reported as “+”. The “Sedative Effect The Rapid Onset of Sedation at a Dose of 100 mg/kg” value (shortened to “Sedative Effect The Rapid Onset”) [1] was “+”, the “hyperlocomotion in open field” value [1] was “not (unlike groups with dizocilpine) observed hyperlocomotion” and the “Behavioural Test No Evidence of Toxicity” value [2] was “+”. The “Passive Avoidance Test No Memory Violation” value [3] was “+”, the “Forced Swimming Test Reduced Floating” value [4] was “−” and the “maximum time avoiding the sector, fourth session of AAPA” value (shortened to “maximum time avoiding the sector”) [5] was “tendency to increase”. For the same molecule, the “number of entries into the forbidden sector, fourth session of AAPA” value (“number … of AAPA” for short) [5] was “reduced number of entries”.

For C=C1CC[C@H]2[C@@H]3CC[C@@H]4C[C@H](OC(=O)CCCC(=O)O)CC[C@]4(C)[C@H]3CC[C@]12C [Compound 69, 5-(((3R,5R,8R,9S,10S,13S,14S)-10,13-Dimethyl-17-methylenhexadecahydro-1H-cyclopenta[a]phenanthren-3-yl)oxy)-5-oxopentanoic acid], the “pathway in open field” value [1] was “significant reduction”, the “locomotor activity over time” value [1] was “significant decrease” and the “Open Field Test No Evidence” value [1] was “+”. The “Sedative Effect The Rapid Onset” value [1] was “+”, the “hyperlocomotion in open field” value [1] was “not (unlike groups with dizocilpine) observed hyperlocomotion” and the inhibition at 20 µM [6, 9] was 62.9 ± 5.1%. For the same molecule, the “Behavioural Test No Evidence of Toxicity” value [2] was “+” and the “NMDA lession Improvement in Cognition in AAPA after NMDA Lession” value ([5]; 1 mg/kg after NMDA lesion) was “−/+”.

For CNC1(c2ccccc2Cl)CCCCC1=O (centres unmarked) [ketamine, reference compound], the “antidepressant effect (decrease of flotation)” value ([4]; reference substance ketamine (10 mg/kg)) was “showed antidepressant effect”.

For “5beta-pregnanolon-3alpha-yl 3-sulfate [3alfa,5beta-Pregnanolone sulfate]”, the mean inhibition effect [7] is given as 71.3±5.0%, the IC50 [6] is given as 55 µM and the “mean inhibition effect (Mean % change ± SD)” value ([8]; listed as 5beta-pregnanolon-3alpha-yl 3-sulfate) is given as 67%. For the same molecule, the “mean inhibition effect (Mean % change ± SD)” value ([8]; listed as pregnanolone sulfate) was 67.2±8.2%.

With C=C1CC[C@H]2[C@@H]3CC[C@@H]4C[C@H](OC(=O)CCC(=O)O)CC[C@]4(C)[C@H]3CC[C@]12C [Compound 68, 4-(((3R,5R,8R,9S,10S,13S,14S)-10,13-Dimethyl-17-methylenhexadecahydro-1H-cyclopenta[a]phenanthren-3-yl)oxy)-4-oxobutanoic acid] the “pathway in open field” value [1] was “significant reduction”, the “locomotor activity over time” value [1] was “significant decrease” and the “Open Field Test No Evidence” value [1] was “+”. For the same molecule, the “Sedative Effect The Rapid Onset” value [1] was “+”, the “hyperlocomotion in open field” value [1] was “not (unlike groups with dizocilpine) observed hyperlocomotion” and the inhibition at 5 µM [6, 9] was 24.2 ± 14.3%. For the same molecule, the IC50 [6] was 18.8 µM, the “Behavioural Test No Evidence of Toxicity” value [2] was “+” and the “Passive Avoidance Test No Memory Violation” value [3] was “+”. For the same molecule, the “maximum time avoiding the sector” value [5] was “tendency to increase” and the “number … of AAPA” value [5] was “reduced number of entries”.

For C/C=C1/CC[C@H]2[C@@H]3CC[C@@H]4C[C@H](OC(=O)CCC(=O)O)CC[C@]4(C)[C@H]3CC[C@]12C [Compound 84, 4-(((3R,5R,8R,9S,10S,13S,14S,Z)-17-Ethylidene-10,13-dimethylhexadecahydro-1H-cyclopenta[a]phenanthren-3-yl)oxy)-4-oxobutanoic acid], the “pathway in open field” value [1] was “significant reduction”, the “locomotor activity over time” value [1] was “significant decrease” and the “Open Field Test No Evidence” value [1] was “+”. For the same molecule, the “Sedative Effect The Rapid Onset” value [1] was “+”, the “hyperlocomotion in open field” value [1] was “not (unlike groups with dizocilpine) observed hyperlocomotion” and the “Behavioural Test No Evidence of Toxicity” value [2] was “+”. For the same molecule, the “Passive Avoidance Test No Memory Violation” value [3] was “−/+”, the “memory impairment in the passive avoidance test” value ([3]; 1 mg/kg) was “Mild memory impairment” and the “maximum time avoiding the sector” value [5] was “tendency to increase”. For the same molecule, the “number … of AAPA” value [5] was “reduced number of entries”.

In the case of C=C1CC[C@H]2[C@@H]3CC[C@@H]4C[C@H](OC(=O)CC(=O)O)CC[C@]4(C)[C@H]3CC[C@]12C [Compound 67, 3-(((3R,5R,8R,9S,10S,13S,14S)-10,13-Dimethyl-17-methylenehexadecahydro-1H-cyclo-penta[a]phenanthren-3-yl)oxy)-3-oxopropanoic acid], the “pathway in open field” value [1] is reported as “significant reduction”, the “locomotor activity over time” value [1] is reported as “significant decrease” and the “Open Field Test No Evidence” value [1] is reported as “+”. For the same molecule, the “Sedative Effect The Rapid Onset” value [1] was “+”, the “hyperlocomotion in open field” value [1] was “not (unlike groups with dizocilpine) observed hyperlocomotion” and the inhibition at 20 µM [6, 9] was 53 ± 10.2%. The IC50 [6] was 18.9 µM, the “Behavioural Test No Evidence of Toxicity” value [2] was “+” and the “maximum time avoiding the sector” value [5] was “significantly increased”. The “number … of AAPA” value [5] was “significant reduction”.

In the case of CC12CC3CC(C)(C1)CC(N)(C3)C2 [memantine, reference compound], the “maximum time avoidance, AAPA” value [5, 10] is reported as “tendency to increase” and the “number of entries into the forbidden sector, AAPA” value [5, 10] is reported as “reduced number of entries”.
